Test results published in paper PMC10846744, “Cathelicidin peptide analogues inhibit EV71 infection through blocking viral entry and uncoating” (PLOS Pathogens, 2024).
Where no end group is shown, it is not given here.

Experiments:
Assay type in all cases: cell-based, enterovirus 71 (EV71)
EV71 virus [1] = assay: Virus internalization assay (q-RT-PCR, immunoblotting); conditions: 1.5 μM peptide (q-RT-PCR, MOI = 1) or 3 μM (immunoblotting, MOI = 10); RD cells 4°C 1 hr then 37°C 1 hr
Description: Fig 3 LL-18 and FF-18 inhibit viral attachment and internalization. (A) EV71 virus (MOI = 1) was pre-incubated with 1.5 μM LL-18, FF-18 or 12 μM 12s before they were used to incubate with RD cells at 4°C for 1 hr. Viral RNA was then determined with q-RT-PCR. Values are normalized to vehicle treated cells. ***, P<0.001. (B) EV71 virus (MOI = 1) was pre-incubated with 1.5 μM LL-18, FF-18 or 12 μM 12s before they were used to incubate with RD cells at 4°C for 1 hr followed by 37°C incubation for 1 hr. Viral RNA was then determined with q-RT-PCR. Values are normalized to vehicle treated cells. ***, P<0.001. (C) Diagram of EV71 subgenomic replicon. […] (D) RD cells transfected with EV71 SGR RNA were treated with 1.5 μM LL-18 or FF-18 for 3 hrs (left panel) or 6 hrs (right panel) before luciferase activity was measured. ns, not significant.
Viral binding and internalization assays were performed as previously described. […] Cells were then washed extensively with ice-cold PBS, and the viruses retained were analyzed with real-time PCR. […]
Supplementary file ppat.1011967.s002.tif: S2 Fig LL-18 and FF-18 inhibit viral attachment and internalization. […] Cells were then washed extensively and kept cultured for 24 hrs before viral VP1 expression was determined with immunoblotting. […] Cells were then washed extensively and kept cultured for 24 hrs before viral VP1 expression was determined with immunoblotting. […]

EV71 virus [2] = assay: EV71 infection inhibition on RD cells (VP1 immunoblot, viral titer, cell viability/CPE); conditions: for inhibition of EV71 viral VP1 protein expression: EV71 MOI = 1 pre-incubated with peptide 1 hr at room temperature, RD cells, immunoblotting, 24 h.p.i
Description: Synthetic peptides were purchased from Bioyears Co. Ltd. (Wuhan, China) with purity of more than 95% and dissolved in PBS. To test their inhibitory effects, the EV71 virus (MOI = 1) was incubated with the indicated amount of peptide at room temperature for 1 hr before the mixture was added to RD cells and maintained throughout the experiment. Cell viability, viral titer, or viral protein expression was determined 24 h.p.i. For the time-of-addition experiment, viruses were either pre-incubated with peptides (for the -2 and -1 time points), the mixture was added to the cells simultaneously (for 0 time point), or peptides were added after virus infection (for 1, 2, 4 and 7 h time points) and the virus/peptide was maintained in the culture before cell viability, viral titer, or viral protein expression was determined 24 h.p.i. The TCID50 of the virus was calculated according to the Reed-Muench method.
Cells were treated as described and harvested with LDS sample buffer (Thermo Fisher Scientific). After denaturation, samples were separated on 10% SDS-PAGE gel and then transferred to a polyvinylidene fluoride (PVDF) membrane. The proteins were blocked using 5% skimmed milk and probed with the corresponding antibodies. The following antibodies were used in this study: EV71 VP1 polyclonal antibody (GeneTex, Taiwan, China), β-Actin antibody (Zen BioScience, Chengdu, China), pan-Enterovirus Monoclonal antibody (Thermo Fisher Scientific). The chemiluminescence signals were visualized using ECL Advance reagents (Mishubio, China), and the images were acquired using the FUSION Solo S Imaging System (VILBER, France).
Cell viability assays were carried out using the Cell Titer-Glo Luminescent Cell Viability Assay Kit (Promega, Madison, WI) following the manufacturer’s instructions. Luminescence signals were measured using a BioTek Neo2 microplate reader.
For crystal violet staining, cells treated as indicated were first washed once with PBS, followed by fixation with 4% PFA. Cells were then stained with 0.5% crystal violet for 2 hrs before they were extensively washed with water.

EV71 virus [3] = assay: Pre-incubation of RD cells with peptide, wash-out, then EV71 infection; conditions: RD cells incubated with peptide 2 hrs, EV71 MOI = 1, cell viability 24 h.p.i (S3A Fig)
Description: Supplementary file ppat.1011967.s003.tif: S3 Fig LL-18 binds directly to virus particles. (A) RD cells were pre-incubated with indicated amounts of LL-18, FF-18, DL-37, or LL-37 for 2 hrs before they were washed extensively to remove unbound peptides. Cells were then infected with the EV71 virus (MOI = 1) and cell viability was determined 24 h.p.i. Values were normalized to uninfected RD cells. ***, P<0.001. (B). ^1H NMR spectra of FF-18 peptide in the absence or presence of EV71 virus (green line) or CVB5 virus (red line). (TIF) Click here for additional data file.

Row | Sequence | inhibition of EV71 internalization (EV71 virus [1]) | inhibition of EV71 infection (overall conclusion) (EV71 virus [2]) | reduction of EV71 viral titer in supernatant (EV71 virus [2]) | inhibition of EV71 viral VP1 protein expression (EV71 virus [2]) | protection when cells are pre-incubated with peptide and unbound peptide washed out (EV71 virus [3])
1 | FRKSKEKIGKFFKRIVQRIFDFLRNLV [FF-18] | strong inhibition | could effectively inhibit EV71 infection | reduce the viral titers dose-dependently | inhibit EV71 viral protein expression in a dose-dependent manner | EV71 could still infect these treated cells and cause cell death
2 | FRKSKEKIGKLFKRIVQRILDFLRNLV [LL-18] | strong inhibition | could effectively inhibit EV71 infection | reduce the viral titers dose-dependently | inhibit EV71 viral protein expression in a dose-dependent manner | EV71 could still infect these treated cells and cause cell death
